Reference: patent US20230303577A1, “TEMOZOLOMIDE ANALOGS AND METHODS OF USE” (St. John's Cancer Institute, priority 2020, published 2023)

What was measured:
[1] = tested on: A172; assay: cells; conditions: Homo sapiens, A 172, 72 h, read-out: IC50, 72 h
Description: The effect of selected compounds on glioma cells viability was determined. The cells were plated at 2000 cells/well in 96 well plates. The day after, cells were treated with various concentrations of temozolomide or VMY-TP analogs.
Activity of TP-RGD was assessed in glioma cell cultures, as described in Example 11.

[2] = Pre-formulation testing: solubility, pH and stability in vehicles; type: physicochemical
Description: Two formulations for TP3 and TMZ were prepared (Tables 10 and 11). Pre-formulation testing was in volumes of 100 μl-250 μl, and should be confirmed with larger volumes. Mice were dosed at 20 mg/kg of TMZ and TP3 using formulation 2 orally and brain and plasma samples were collected at 0, 0.5, 1, 3, 6 and 12 h timepoints and the concentration was measured using LC-MS and calculate PK parameters using standard equation. The stability profile (FIGS. 9A and 9B) and release kinetics profiles (FIGS. 10A and 10B) were compared. Single dose oral brain to plasma pharmacokinetic parameters were determined with Formulation 2 (Table 12).

[3] = tested on: U87-Luc; assay: Orthotopic U87-Luc human glioblastoma tumor xenograft model; type: in vivo, Athymic Nude mice; conditions: 10 mg/kg oral gavage
Description: Animal studies were performed in accordance with Translational Drug Development, LLC IACUC-approved protocols. Intracranial tumors were generated by injecting 3×10^5 U87-Luc cells in […] of growth media into the right corpus striatum (1 mm anterior and 2 mm lateral to the bregma, depth of 3 mm) of Athymic Nude (Crl:NU(NCr)-Foxn1nu) mice (Charles River, Hollister, CA). Treatment was initiated 7 days after injection. […] Oral gavage treatments were formulated in 10% PEG300 in PBS. Bioluminescence (Total ROI, photons/s) images were performed under anesthesia once weekly starting on Day 1 (7 days post inoculation of U87-Luc cells) and body weights were recorded twice weekly. […] Upon peri-morbidity or at study end, mice were euthanized, brain tumor was excised from right side of brain, and a wet weight was recorded. If tumor was not grossly identifiable, expected tumor-region of the brain was collected. Tissue was fixed in formalin for 48-72 hours and then stored in 70% Ethanol.
A minimum of 100 μL/mouse of whole blood was collected via submandibular survival bleed on Day 10 and Day 27 from 3 mice per group (selected by TD2) from Groups 1, 2 and 4 for assessment of hematological toxicity. Blood was placed in K2-EDTA microtainer tubes (Becton, Dickinson & Co.; Franklin Lakes, NJ) and mixed thoroughly before CBC analysis at TD2.

[4] = tested on: U251; assay: cells; conditions: Homo sapiens, U-251, 72 h, read-out: IC50 U251 cell proliferation (BrdU ELISA)
Description: U87 cells were seeded at the density of 2,000 cells/well in 96-well plates and incubated overnight. The day after, cells were treated with various concentrations of Temozolomide or analogs for 72 hours. The BrdU ELISA proliferation assay was performed according to the manufacturer's instructions (Roche, #11647229001). Briefly, 20 μl of diluted BrdU labelling reagent was added to each well, to a final concentration of 10 μM BrdU per well. The cells were then incubated at 37° C. for 24 hours. Following this incubation, the labeling medium was aspirated from each well and 200 μl of Roche FixDenat fixing buffer was added. The plates were then incubated at 25° C. for 30 minutes. The fixing solution was removed, and 100 μl of Anti-BrdU-POD antibody was added to each well and incubated again at 25° C. for 90 minutes. Wells were rinsed three times with 200 μl of PBS, then 100 μl of Roche Substrate solution was added to each well. Following a 25 minute incubation at room temperature, the absorbance of each plate was read at 370 nm (reference wavelength: approx. 492 nm) on a Spectramax® i3x microplate reader.
The effect on U251 cell proliferation after 72 hours of treatment was also assessed using the BrdU ELISA cell proliferation assay as described in Example 11.

[5] = background statement; cited from earlier work
[6] = tested on: U87 cells; assay: U87 subcutaneous flank xenograft GBM model; type: in vivo, SCID mice; conditions: 20 mg/kg orally, once daily then every other day, 14 days
Description: A suspension of U87 cells was prepared in 1×HBSS, pH 7.4 and mixed with an equal volume (1:1) of ice cold Matrigel®. Then, 0.1 mL of the cell suspension containing 5×10^6 cells was injected subcutaneously using a 22-gauge needle into the flank region of SCID mice. Animals were monitored daily during the period between inoculation and study initiation. Treatment was started when the average tumor size reached approximately ˜100 mm^3. The test (TP3) and Reference compound (TMZ) were administered orally at 20 mg/kg at a dose volume of 10 mL/Kg. The exact dose was administered based on individual animal body weight recorded during the study period. The TP3 and TMZ treatments were scheduled for once daily dosing for 14 days. However, the dose frequency had to be reduced from once daily to every other day, due to a 10-14% loss of body weight seen in the treated mice from Day 9 until study completion (FIG. 11D). The control group was administered vehicle alone. The test and reference compounds were formulated in 0.4% (v/v) Tween 80, 2% (v/v) Glycerol and 97.6% (v/v) of 30% (w/v) Captisol (SPECD). Number of mice per treatment cohort=8. Tumor growth was measured twice weekly using a digital Vernier caliper.

[7] = 2.0 mg/mL in 10% DMA + 15% Solutol HS15 + 10% PEG 400 + 10% PG + 55% of 15% (w/v) Captisol
[8] = 2.0 mg/mL in 10% DMA + 10% Tween 80 + 15% PEG 400 + 15% PG + 50% of 15% (w/v) Captisol
[9] = 2.0 mg/mL in 10% DMA + 10% Tween 80 + 15% PEG 400 + 15% PG + 50% of 25% (w/v) Captisol
[10] = 4.0 mg/mL in 5% DMA + 10% Tween 80 + 10% PEG 400 + 10% PG + 65% of 50% (w/v) Captisol
[11] = 4.0 mg/mL in 10% DMA + 10% Tween 80 + 10% PEG 400 + 10% PG + 60% of 50% (w/v) Captisol

Structure (SMILES): Cn1nnc2c(C(N)=O)ncn2c1=O [TMZ, temozolomide]
- IC50 [1]: > 100 µM
- Remarks (solubility) [2, 7]: Soluble
- Stability (0-4 h) ([2]; Formulation 2, 2 mg/ml): Stable
- Stability (0-4 h) ([2]; Formulation 3, 2 mg/ml): Stable
- effect on body weight ([3]; QD×5×4, compared to control): impacted body weight
- day 22 mean BLI value ([3]; QD×5×4, control 2.43E+08): 1.87E+06 photon/s
- IC50 [4]: > 200 µM
- retention in the cerebral parenchyma [5]: 20%

Structure (SMILES): CCCCCCNC(=O)c1ncn2c(=O)n(C)nnc12 [TP3, N-hexyl-3-methyl-4-oxo-3,4-dihydroimidazo[5,1-d][1,2,3,5]tetrazine-8-carboxamide]
- Remarks (solubility) ([2]; 2.0 mg/mL in 5% DMA + 10% Tween 80 + 10% PEG 400 + 10% PG + 65% of 15% (w/v) Captisol): Not Soluble
- Remarks (solubility) ([2]; 2.0 mg/mL in 10% DMA + 10% Tween 80 + 10% PEG 400 + 10% PG + 60% Normal saline): Not Soluble
- pH ([2]; 2.0 mg/mL in 10% DMA + 10% Tween 80 + 10% PEG 400 + 10% PG + 60% of 15% (w/v) Captisol (100 μL)): ~6
- Remarks (solubility) ([2]; 2.0 mg/mL in 10% DMA + 10% Tween 80 + 10% PEG 400 + 10% PG + 60% of 15% (w/v) Captisol (100 μL, from 20 mg/mL DMA stock)): Soluble
- Remarks (solubility) ([2]; 2.0 mg/mL in 10% DMA + 10% Tween 80 + 10% PEG 400 + 10% PG + 60% of 15% (w/v) Captisol (250 μL)): Not Soluble
- Remarks (solubility) ([2]; 2.0 mg/mL in 10% DMA + 10% Tween 80 + 10% PEG 400 + 10% PG + 60% of 15% (w/v) HPβCD): Not Soluble
- Remarks (solubility) [2, 8]: Soluble
- pH [2, 8]: ~6
- Remarks (solubility) [2, 9]: Soluble
- pH [2, 9]: ~6
- Remarks (solubility) [2, 7]: Soluble
- Remarks (solubility) [2, 10]: Soluble
- pH [2, 10]: ~6
- Remarks (solubility) ([2]; 4.0 mg/mL in 5% DMA + 10% Tween 80 + 10% PEG 400 + 10% PG + 65% of 50% (w/v) HPβCD): Not Soluble
- Remarks (solubility) ([2]; 4.0 mg/mL in 10% DMA + 5% Tween 80 + 15% PEG 400 + 15% PG + 50% of 25% (w/v) Captisol): Not Soluble
- Remarks (solubility) ([2]; 4.0 mg/mL in 10% DMA + 5% Tween 80 + 85% Normal saline): Not Soluble
- Remarks (solubility) ([2]; 4.0 mg/mL in 10% DMA + 10% Tween 80 + 10% PEG 400 + 10% PG + 60% Normal saline): Not Soluble
- Remarks (solubility) [2, 11]: Soluble
- pH [2, 11]: ~6
- Remarks (solubility) ([2]; 4.00 mg/mL in 25% of DMSO + 75% Normal Saline): Not Soluble
- Stability (0-4 h) ([2]; Formulation 2, 2 mg/ml): Stable
- pH ([2]; Formulation 2, 2 mg/ml): 4.81
- Stability (0-4 h) ([2]; Formulation 3, 2 mg/ml): Stable
- pH ([2]; Formulation 3, 2 mg/ml): 5.66
- tumor volume [6]: significantly reduced
- tumor weight [6]: significantly reduced
